pEC50, pIC50, pKi: −log10 of the molar value.
Assays:
[1] = target: T1, 5-hydroxytryptamine receptor 6 (Homo sapiens, UniProt P50406); assay: Displacement of [3H]LSD from human 5-HT6 receptor expressed in human HeLa cells after 2 hrs; format: cell-based
[2] = target: T1, 5-hydroxytryptamine receptor 6; assay: Agonist activity at human 5-HT6 receptor expressed in human HeLa cells assessed as effect on 5HT-induced intracellular cAMP level after 10 mins by radioimmunoassay relative to serotonin; format: functional, cell-based
[3] = target: T1, 5-hydroxytryptamine receptor 6; assay: Agonist activity at human 5-HT6 receptor expressed in human HeLa cells assessed as effect on 5HT-induced intracellular cAMP level after 10 mins by radioimmunoassay; format: functional, cell-based
[4] = target: T1, 5-hydroxytryptamine receptor 6; assay: Antagonist activity at human 5-HT6 receptor expressed in human HeLa cells assessed as inhibition of 5HT-induced intracellular cAMP level after 10 mins by radioimmunoassay relative to serotonin; format: functional, cell-based
[5] = target: T1, 5-hydroxytryptamine receptor 6; assay: Antagonist activity at human 5-HT6 receptor expressed in human HeLa cells assessed as inhibition of 5HT-induced intracellular cAMP level after 10 mins by radioimmunoassay; format: functional, cell-based

T1 sequence (P50406 whole entry): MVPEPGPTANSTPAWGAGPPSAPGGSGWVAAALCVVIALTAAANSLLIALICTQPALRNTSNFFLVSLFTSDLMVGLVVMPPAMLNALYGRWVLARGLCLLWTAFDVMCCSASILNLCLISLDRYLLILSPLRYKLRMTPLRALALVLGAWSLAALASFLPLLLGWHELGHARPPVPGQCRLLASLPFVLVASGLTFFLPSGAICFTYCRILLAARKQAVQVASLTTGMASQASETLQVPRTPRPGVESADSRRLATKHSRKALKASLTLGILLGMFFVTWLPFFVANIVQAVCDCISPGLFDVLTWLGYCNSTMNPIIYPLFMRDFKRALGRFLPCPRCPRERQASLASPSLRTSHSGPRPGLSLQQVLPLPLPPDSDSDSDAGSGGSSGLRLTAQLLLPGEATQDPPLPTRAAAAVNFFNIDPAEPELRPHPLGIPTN

| pKi [1] | Emax [2] | pEC50 [3] | Imax [4] | pIC50 [5] | Compound |
| --- | --- | --- | --- | --- | --- |
| 8.30 | 70% | 7.22 | – | – | O=S(=O)(c1ccccc1)c1cn(C2CCNC2)c2ccccc12 (stereo not drawn) |
| 8.22 | 78% | 7.25 | – | – | O=S(=O)(c1cccc(F)c1)c1cn(C2CCCNC2)c2ccccc12 (stereo not drawn) |
| 8.15 | – | – | 87% | 6.97 | CN1CCCC(n2cc(S(=O)(=O)c3cccc4ccccc34)c3ccccc32)C1 (stereo not drawn) |
| 8.34 | – | – | 100% | 7.10 | COc1ccc2c(S(=O)(=O)c3cccc(Cl)c3)cn(C3CCNC3)c2c1 (stereo not drawn) |
| 8.89 | – | – | 86% | 7.77 | CN1CCC(n2cc(S(=O)(=O)c3cccc(Cl)c3)c3ccccc32)C1 (stereo not drawn) |
| 8.30 | – | – | 70% | 7.03 | CN1CCC(n2cc(S(=O)(=O)c3cccc(F)c3)c3cc(F)ccc32)C1 (stereo not drawn) |
| 8.25 | 71% | 6.23 | – | – | O=S(=O)(c1cn(C2CCCNC2)c2ccccc12)c1cccc2cccnc12 (stereo not drawn) |
| 8.22 | – | – | 98% | 7.22 | CN1CCC(n2cc(S(=O)(=O)c3cccc4ccccc34)c3ccccc32)C1 (stereo not drawn) |
| 7.74 | – | – | – | – | O=S(=O)(c1cccc(F)c1)c1cn(C2CCNC2)c2cccc(F)c12 (stereo not drawn) |
| 6.95 | – | – | – | – | O=S(=O)(c1ccccc1)c1cn(C2CCN(Cc3ccccc3)C2)c2ccccc12 (stereo not drawn) |
| 8.14 | 52% | 7.51 | – | – | CCN1CCCC(n2cc(S(=O)(=O)c3ccccc3)c3ccccc32)C1 (stereo not drawn) |
| 8.46 | 49% | 6.40 | – | – | CN1CCC(n2cc(S(=O)(=O)c3cccc(F)c3)c3ccccc32)C1 (stereo not drawn) |
| 7.63 | – | – | 100% | 6.97 | O=S(=O)(c1cccc2ccccc12)c1cn(C2CCNC2)c2ccccc12 (stereo not drawn) |
| – | – | – | 85% | 7.74 | O=S(=O)(c1cccc(F)c1)c1cn(C2CCCNC2)c2ccc(F)cc12 (stereo not drawn) |
| 7.82 | – | – | – | – | O=S(=O)(c1cccc(F)c1)c1cn(C2CCNC2)c2ccc(Cl)cc12 (stereo not drawn) |
| – | 99% | 7.09 | – | – | O=S(=O)(c1ccccc1)c1cn(C2CCCNC2)c2ccccc12 (stereo not drawn) |
| 8.33 | 38% | 7.17 | – | – | O=S(=O)(c1cccc(F)c1)c1cn(C2CCNC2)c2ccccc12 (stereo not drawn) |
| 8.02 | 50% | 7.42 | – | – | O=S(=O)(c1cccc(F)c1)c1cn(C2CCNC2)c2ccc(F)cc12 (stereo not drawn) |
| 7.97 | 75% | 7.14 | – | – | COc1ccc2c(c1)c(S(=O)(=O)c1cccc(F)c1)cn2C1CCCNC1 (stereo not drawn) |
| 8.82 | – | – | 64% | 7.09 | O=S(=O)(c1cn(C2CCNC2)c2ccccc12)c1cccc2cccnc12 (stereo not drawn) |
| 8.55 | – | – | 97% | 7.12 | CN1CCC(n2cc(S(=O)(=O)c3cccc4cccnc34)c3ccccc32)C1 (stereo not drawn) |
| 7.80 | 50% | 6.69 | – | – | CCN1CCCC(n2cc(S(=O)(=O)c3cccc(F)c3)c3cc(OC)ccc32)C1 (stereo not drawn) |
| 7.74 | – | – | – | – | O=S(=O)(c1cccc(F)c1)c1cn(C2CCNC2)c2cc(F)ccc12 (stereo not drawn) |
| 7.14 | – | – | – | – | O=S(=O)(c1cccc(F)c1)c1cn(C2CCNC2)c2cc(Cl)ccc12 (stereo not drawn) |
| 8.49 | 48% | 6.90 | – | – | O=S(=O)(c1cccc(Cl)c1)c1cn(C2CCNC2)c2ccccc12 (stereo not drawn) |

Reference: ChEMBL document CHEMBL1154965, “3-(Arylsulfonyl)-1-(azacyclyl)-1H-indoles are 5-HT(6) receptor modulators” (Bioorg Med Chem Lett, 2010)
